According to US12152038B2, “Vasopressin receptor antagonists and products and methods related thereto” (Neumora Therapeutics, Inc., priority 2017, dated 2024):
pIC50: −log10 of the molar value. Read-outs that look alike come from different tables or passages of the source. Blank lines part the entries; values can stand above or below the compound they belong to.

Experiments:
[1] = target: T1, human Arginine Vasopressin Receptor 1a (AVPR1a) (Homo sapiens, UniProt P37288); test: Vasopressin V1a receptor antagonist assay (FLIPR calcium, CHO-AVPR1a cells); format: cell-based
T1 construct: expressed in transfected cells; host or cells: CHO (CHO-AVPR1a, kept under G418 selection)
Protocol: (§1) The purpose of this assay was to determine the inhibitory effect of synthesized compounds on the Vasopressin V1a receptor. The assay was performed in Chinese Hamster Ovary (CHO) cells expressing the human Arginine Vasopressin Receptor 1a (AVPR1a). Arginine Vasopressin (AVP) evokes an increase in intracellular calcium in CHO-AVPR1a cells which is measured in a fluorescence assay on the FLIPR^TETRA using calcium sensitive dyes. Test compounds were assessed for their ability to affect the magnitude of the response to AVP, with antagonists showing a concentration-dependent reduction in the AVP-mediated fluorescence. Compounds were tested in duplicate in a 10-point, 1:3 dilution series starting at a nominal concentration of 3 μM in the assay.
CHO-AVPR1a cells were maintained in routine culture in T175 Flasks at 37° C., 5% CO2. The growth medium consists of Ham's F12 media supplemented with 10% v/v fetal bovine serum, 1× non-essential amino acids, and 0.4 mg/ml Geneticin G418.
(§2) On day one, cells were harvested from T175 flasks when they are 80-90% confluent by first washing the cell monolayer with PBS and then dissociated using trypsin 0.05%/EDTA (3 mL for a T175 Flask). The flasks were incubated at room temperature until the cells detached. To the cell suspension, 10 ml of growth media was added and the cell density determined using the Vi-Cell automated cell counter. The cells were spun at 1000 rpm for 3 minutes, then the supernatant was carefully removed and discarded. The cell pellet was re-suspended at 6.0e^5 cells/ml in growth media. 25 μL of cells in growth media was dispensed into each well (15,000 cells per well) of a poly-D-lysine coated black, clear bottomed, 384-well plate. The plates were incubated at 37° C., 5% CO2 overnight.
(§3) At the start of each assay day, the potency of AVP was assessed and an EC80 concentration determined for subsequent compound profiling. Assays were performed using a two-step addition protocol on the FLIPR^TETRA; first addition of 5 μl of control or test compound at 10× final in assay buffer with 15 min incubation at 37° C., 5% CO2 followed by 10 μl of AVP at 6× final concentration in assay buffer. Changes in fluorescence were monitored for 3 min after both additions on the FLIPR^TETRA using 470-495 nm excitation and 515-575 nm emission wavelengths. The assay buffer consisted of HBSS (+Ca/+Mg) supplemented with 20 mM HEPES, and for the preparation of the AVP agonist only, 0.1% w/v bovine serum albumin. The assay was initiated by the removal of growth media from the cells and replacement with 45 μl of Calcium-6 dye (Molecular Devices) prepared at 1× in assay buffer. Cells were loaded with dye for 60-90 min at 37° C., 5% CO2 before initiation of the FLIPR^TETRA protocol. […] For compound profiling, test compounds were first serially diluted in DMSO (10-point curve, 1:3 dilutions) then diluted 33.3-fold in assay buffer prior to addition to the dye loaded cells on the FLIPR^TETRA. At the end of the incubation period, 10 μl of AVP in assay buffer containing 0.1% BSA was added at the previously determined EC80 concentration.
In-plate controls for the assay included balovaptan and PF-184563 concentration-response curves as reference V1a antagonists, and an AVP concentration-response curve to confirm the reproducibility of the EC80 used for the compound challenge.

[2] = target: T2, MDR1 (P-glycoprotein) (Homo sapiens, UniProt P08183); test: MDR1-MDCK permeability and efflux assay (Papp, efflux ratio, effective efflux ratio); format: in vitro ADME; settings: dog; for Papp A→B at 1 h, 10 μM: pH 7.4, read-out: Papp AB MDR1
T2 construct: host or cells: MDCK (MDR1-MDCK; wild-type MDCK as comparator)
Protocol: (§4) The MDR1-MDCK effective efflux assay was performed as described in the BioFocus Standard Operating Procedure, ADME-SOP-56. Both wild-type (WT) and MDR1-MDCK cells (Solvo Biotechnology) were seeded onto 24-well Transwell plates at 2.35×10^5 cells per well and used in confluent monolayers after a 3 day culture at 37° C. under 5% CO2. For both cell types, test and control compounds (propranolol, vinblastine) were added (10 μM, 0.1% DMSO final, n=2) to donor compartments of the Transwell plate assembly in assay buffer (Hanks balanced salt solution supplemented with 25 mM HEPES, adjusted to pH 7.4) for both apical to basolateral (A>B) and basolateral to apical (B>A) measurements. Incubations were performed at 37° C., with samples removed from both donor and acceptor chambers at T=0 and 1 hour and compound analysed by mass spectrometry (LC-MS/MS) including an analytical internal standard.
(§5) Apparent permeability (Papp) values were determined from the relationship: Papp=[CompoundAcceptor T=end]×V Acceptor/([Compound Donor T=0]×V Donor)/incubation time×V Donor/Area×60×10^−6 cm/s
(§6) In this equation, V is the volume of each Transwell compartment (apical 125 μL, basolateral 600 μL), and concentrations are the relative MS responses for compound (normalized to internal standard) in the donor chamber before incubation and acceptor chamber at the end of the incubation, and Area is the area of cells exposed for drug transfer (0.33 cm^2).
(§7) Efflux ratios (Papp B>A/Papp A>B) were calculated for each compound from the mean Papp values in each direction for both wild-type and MDR1-MDCK cells.
(§8) In order to confirm the involvement of MDR1 in any efflux seen, an “effective efflux ratio” (EER) was calculated by comparing compound efflux ratios (ER) in the two cell types by the following equation: EER=ER(MDR1-MDCK)/ER(wild-type MDCK)
(§9) This ratio illustrates the effect of the over-expressed MDR1 normalised for the background movement of compound through the wild-type cells.
(§10) Lucifer Yellow (LY) was added to the apical buffer in all wells to assess viability of the cell layer. […] Recoveries<50% indicates compound solubility, stability or binding issues, thereby reducing the reliability of a result.
(§11) The inherent ability of a potential drug molecule to penetrate the blood brain barrier and avoid efflux by transporters expressed in the brain, can be roughly correlated with the Papp(A-B) and the efflux ratio (as defined above), respectively. A potential drug molecule with an apparent permeability<7 (10^−6 cm/sec) has low permeability (+), >7 (10^−6 cm/sec) but <10 (10^−6 cm/sec) has moderate permeability (++), >10 (10^−6 cm/sec) but <20 (10^−6 cm/sec) has good permeability (+++), and >20 (10^−6 cm/sec) is highly permeable (++++). High permeability in the WT and MDCK II cell permeability assay increases the probability of blood brain barrier penetration and access to the CNS. A potential drug molecule in the above assay system with an efflux ratio or effective efflux ratio of <1 has low probability of being an efflux substrate (++++), >1 but <2 has moderate probability of being an efflux substrate (+++), >2 but <3 has has an increased probability of being an efflux substrate (++), and >3 has a high probability of being an efflux substrate (+). If a potential drug molecule is an efflux substrate, the molecule will have a low probability of reaching exposures in the brain (site of action) that will result in efficacious levels of receptor occupancy.

[3] = Wild-type MDCK permeability and efflux assay (Papp, efflux ratio); format: in vitro ADME; settings: dog, pH 7.4, wild-type MDCK cells; for efflux ratio at 1 h, 10 μM: Papp B>A/Papp A>B, read-out: ER WT (Efflux Ratio)
Protocol: as §4, §5, §6, §7, §8, §9, §10, §11

[4] = target: T3, human Arginine Vasopressin Receptor 1b (AVPR1b) (Homo sapiens, UniProt P47901); test: Vasopressin V1b receptor antagonist assay (FLIPR calcium, CHO-AVPR1b cells); format: cell-based
T3 construct: expressed in transfected cells; host or cells: CHO (CHO-AVPR1b, kept under G418 selection)
T3 sequence (P47901 1-424): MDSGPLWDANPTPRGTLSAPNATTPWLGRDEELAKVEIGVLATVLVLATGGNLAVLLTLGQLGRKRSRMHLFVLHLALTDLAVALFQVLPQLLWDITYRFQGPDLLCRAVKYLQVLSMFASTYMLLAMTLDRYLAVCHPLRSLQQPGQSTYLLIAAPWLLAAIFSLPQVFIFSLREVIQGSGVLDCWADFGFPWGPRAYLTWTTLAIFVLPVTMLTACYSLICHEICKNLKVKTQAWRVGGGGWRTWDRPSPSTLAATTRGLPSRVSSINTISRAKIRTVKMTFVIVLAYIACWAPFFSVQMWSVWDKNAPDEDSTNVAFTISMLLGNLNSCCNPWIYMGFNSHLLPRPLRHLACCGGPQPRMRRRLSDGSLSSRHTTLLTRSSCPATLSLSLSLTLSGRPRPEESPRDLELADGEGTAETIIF
Protocol: as §1, with “the” for “this”, “V1b” for “V1a”, “1b (AVPR1b).” for “1a (AVPR1a).”, “CHO-AVPR1b” for “CHO-AVPR1a”, “fluorescence.” for “fluorescence. Compounds were tested in duplicate in a 10-point, 1:3 dilution series starting at a nominal concentration of 3 μM in the assay.”
CHO-AVPR1b cells were maintained in routine culture in T175 Flasks at 37° C., 5% CO2. The growth medium consisted of Ham's F12 media supplemented with 10% v/v fetal bovine serum, 1× non-essential amino acids, and 0.4 mg/ml Geneticin G418.
as §2, with “Cells were” for “On day one, cells were”, “they were” for “they are”
as §3, with “period” for “period,”
In-plate controls for the assay included a Nelivaptan concentration-response curve as the reference V1b antagonist and an AVP concentration-response curve to confirm the reproducibility of the EC80 used for the compound challenge.

[5] = MDCK-MDR1, pH 7.4, ER(MDR1-MDCK)/ER(wild-type MDCK), read-out: EER (Effective Efflux Ratio)
[6] = MDCK-MDR1, pH 7.4, Papp B>A/Papp A>B, MDR1-MDCK cells, read-out: ER MDR1 (Efflux Ratio)

T2 sequence (P08183 whole entry): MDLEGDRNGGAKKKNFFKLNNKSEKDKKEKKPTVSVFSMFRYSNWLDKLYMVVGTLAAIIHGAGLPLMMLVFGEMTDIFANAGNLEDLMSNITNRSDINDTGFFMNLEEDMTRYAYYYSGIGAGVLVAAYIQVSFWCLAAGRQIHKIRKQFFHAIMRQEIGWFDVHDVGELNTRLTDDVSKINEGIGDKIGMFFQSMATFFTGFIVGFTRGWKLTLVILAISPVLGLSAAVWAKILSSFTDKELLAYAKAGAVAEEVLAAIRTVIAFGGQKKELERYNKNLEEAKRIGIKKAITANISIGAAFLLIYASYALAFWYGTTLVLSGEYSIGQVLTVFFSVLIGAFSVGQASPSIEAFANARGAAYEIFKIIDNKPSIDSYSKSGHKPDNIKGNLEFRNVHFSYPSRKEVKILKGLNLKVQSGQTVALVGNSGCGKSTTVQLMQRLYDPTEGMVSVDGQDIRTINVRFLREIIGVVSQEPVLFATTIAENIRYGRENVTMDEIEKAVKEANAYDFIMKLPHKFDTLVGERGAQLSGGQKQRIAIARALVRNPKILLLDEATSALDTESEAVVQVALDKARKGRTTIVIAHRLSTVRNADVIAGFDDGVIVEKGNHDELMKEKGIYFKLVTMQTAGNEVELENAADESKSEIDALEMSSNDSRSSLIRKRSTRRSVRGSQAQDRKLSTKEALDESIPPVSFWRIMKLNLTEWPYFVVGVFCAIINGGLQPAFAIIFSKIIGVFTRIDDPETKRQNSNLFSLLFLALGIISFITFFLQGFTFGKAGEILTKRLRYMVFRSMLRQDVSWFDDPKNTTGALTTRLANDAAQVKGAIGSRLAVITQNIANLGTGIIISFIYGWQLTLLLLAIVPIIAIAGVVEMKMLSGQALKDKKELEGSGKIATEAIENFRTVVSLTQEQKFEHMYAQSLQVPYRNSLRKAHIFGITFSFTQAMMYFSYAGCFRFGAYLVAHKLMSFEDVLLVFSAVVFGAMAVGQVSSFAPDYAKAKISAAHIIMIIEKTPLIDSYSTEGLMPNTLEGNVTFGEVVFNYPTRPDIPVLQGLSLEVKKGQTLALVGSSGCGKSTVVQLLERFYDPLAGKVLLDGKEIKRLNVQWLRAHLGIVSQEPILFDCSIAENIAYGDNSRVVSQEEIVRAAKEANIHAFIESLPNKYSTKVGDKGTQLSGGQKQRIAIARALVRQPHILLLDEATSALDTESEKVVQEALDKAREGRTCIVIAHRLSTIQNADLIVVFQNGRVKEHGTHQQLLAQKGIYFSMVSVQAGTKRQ
T1 sequence (P37288 whole entry): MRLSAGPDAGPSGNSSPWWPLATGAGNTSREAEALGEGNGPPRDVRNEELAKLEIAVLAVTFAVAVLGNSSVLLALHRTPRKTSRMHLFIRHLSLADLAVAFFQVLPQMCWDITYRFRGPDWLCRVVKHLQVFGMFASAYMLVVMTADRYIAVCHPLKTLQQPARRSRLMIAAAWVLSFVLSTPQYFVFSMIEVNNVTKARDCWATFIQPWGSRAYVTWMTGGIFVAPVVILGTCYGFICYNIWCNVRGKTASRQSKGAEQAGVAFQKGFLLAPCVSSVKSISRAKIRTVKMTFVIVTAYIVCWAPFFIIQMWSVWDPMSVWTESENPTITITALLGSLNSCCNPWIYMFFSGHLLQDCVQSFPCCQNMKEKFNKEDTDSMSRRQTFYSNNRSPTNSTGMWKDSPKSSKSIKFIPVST

SMILES: CC1COc2cc(F)ccc2N1C(=O)N1CC2(C1)CN(c1ccc(F)cn1)C2 (single isomer, unassigned) [12-1-A]
pIC50 [1]: ≤ 6.00 | efflux ratio at 1 h, 10 μM [2, 5]: 1 to 2 | efflux ratio at 1 h, 10 μM [2, 6]: < 1 | Papp A→B at 1 h, 10 μM ([2]; MDR1-MDCK cells): > 20 ×10⁻⁶ cm/s | Papp A→B at 1 h, 10 μM [3]: > 20 ×10⁻⁶ cm/s | efflux ratio at 1 h, 10 μM [3]: < 1

SMILES: Cc1ccnc(N2CC3(CN(C(=O)N4c5ccc(F)cc5OCC4C)C3)C2)c1 (stereo not drawn) [20-4]
pIC50 [1]: > 7.00

SMILES: Cc1cnc(N2CC3(CN(C(=O)N4c5ccc(Cl)cc5OCC4C)C3)C2)cn1 (stereo not drawn) [20-5]
pIC50 [1]: > 7.00

SMILES: CC1COc2cc(Cl)ccc2N1C(=O)N1CC2(C1)CN(c1cc(=O)n(C)cn1)C2 (stereo not drawn) [20-14]
pIC50 [1]: 6.30 to 7.00

SMILES: CC1COc2cc(Cl)ccc2N1C(=O)N1CC2(C1)CN(c1ncc(C3CC3)cn1)C2 (stereo not drawn) [21-7]
pIC50 [1]: 6.30 to 7.00

Continued, values first:

pIC50 [1]: > 7.00 | efflux ratio at 1 h, 10 μM [2, 5]: > 3 | efflux ratio at 1 h, 10 μM [2, 6]: > 3 | Papp A→B at 1 h, 10 μM ([2]; MDR1-MDCK cells): > 20 ×10⁻⁶ cm/s | Papp A→B at 1 h, 10 μM [3]: > 20 ×10⁻⁶ cm/s | efflux ratio at 1 h, 10 μM [3]: 1 to 2
SMILES: O=C(N1CC2(C1)CN(c1cnccn1)C2)N1CCC(O)c2cc(Cl)ccc21 (single isomer, unassigned) [13-3-B]

pIC50 [1]: > 7.00 | pIC50 [4]: ≤ 6.00
SMILES: O=C(N1CC2(C1)CN(c1ncccc1F)C2)N1CCOc2cc(Cl)ccc21 [1-1, (7-chloro-2,3-dihydro-4H-benzo[b][1,4]oxazin-4-yl)(6-(3-fluoropyridin-2-yl)-2,6-diazaspiro[3.3]heptan-2-yl)methanone]

pIC50 [1]: > 7.00
SMILES: CC1(O)CCN(C(=O)N2CC3(C2)CN(c2ccc(F)cn2)C3)c2ccc(Cl)cc21 (stereo not drawn) [15-1, (6-chloro-4-hydroxy-4-methyl-3,4-dihydroquinolin-1(2H)-yl)(6-(5-fluoropyridin-2-yl)-2,6-diazaspiro[3.3]heptan-2-yl)methanone]

pIC50 [1]: > 7.00
SMILES: COC1CCN(C(=O)N2CC3(C2)CN(c2ccc(F)cn2)C3)c2ccc(Cl)cc21 (stereo not drawn) [16-1, (6-chloro-4-methoxy-3,4-dihydroquinolin-1(2H)-yl)(6-(5-fluoropyridin-2-yl)-2,6-diazaspiro[3.3]heptan-2-yl)methanone]

pIC50 [1]: > 7.00
SMILES: CC1COc2cc(Cl)ccc2N1C(=O)N1CC2(C1)CN(c1ncc(F)cn1)C2 (stereo not drawn) [18-2]
